Reference: patent US20140051679A1, “KINASE INHIBITORS AND METHOD OF TREATING CANCER WITH SAME” (UNIVERISTY HEALTH NETWORKS, priority 2011, published 2014)

Experiments:
human TTK = biological target: T1, human TTK (Homo sapiens, UniProt P33981); assay: TTK inhibition assay (indirect ELISA); format: biochemical; conditions: GST-TTK 0.68 nM, 16 μM ATP; read-out: IC50 Ranges TTK
T1 construct: amino terminal GST fusion of full length human TTK; purchased Invitrogen
T1 sequence (P33981 1-857): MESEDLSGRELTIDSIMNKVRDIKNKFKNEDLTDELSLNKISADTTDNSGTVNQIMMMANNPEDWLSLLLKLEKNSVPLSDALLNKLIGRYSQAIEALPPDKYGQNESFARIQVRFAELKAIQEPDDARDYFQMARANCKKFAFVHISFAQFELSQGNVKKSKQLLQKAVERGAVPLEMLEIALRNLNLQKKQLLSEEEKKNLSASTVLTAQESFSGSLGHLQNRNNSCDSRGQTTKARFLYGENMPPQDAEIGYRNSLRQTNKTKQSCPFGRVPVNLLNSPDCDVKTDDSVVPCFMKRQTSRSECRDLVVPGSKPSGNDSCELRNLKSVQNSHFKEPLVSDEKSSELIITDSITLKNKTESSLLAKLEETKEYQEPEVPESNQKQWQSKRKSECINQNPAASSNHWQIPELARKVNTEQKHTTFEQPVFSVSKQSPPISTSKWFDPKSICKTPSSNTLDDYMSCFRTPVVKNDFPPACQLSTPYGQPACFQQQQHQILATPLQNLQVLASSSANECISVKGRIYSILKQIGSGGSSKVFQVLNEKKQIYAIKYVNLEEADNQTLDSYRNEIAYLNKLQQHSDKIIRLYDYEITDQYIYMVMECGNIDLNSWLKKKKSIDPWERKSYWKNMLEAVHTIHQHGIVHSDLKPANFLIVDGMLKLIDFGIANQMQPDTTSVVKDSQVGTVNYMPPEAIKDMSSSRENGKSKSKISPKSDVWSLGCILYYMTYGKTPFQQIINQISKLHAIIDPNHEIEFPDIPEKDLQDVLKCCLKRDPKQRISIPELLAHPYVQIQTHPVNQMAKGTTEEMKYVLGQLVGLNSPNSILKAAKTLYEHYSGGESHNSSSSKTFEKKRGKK

human PLK4 = biological target: T2, human PLK4 (Homo sapiens, UniProt O00444); assay: PLK4 inhibition assay (indirect ELISA); format: biochemical; conditions: GST-PLK4 4 nM, 15 μM ATP; read-out: IC50 Ranges PLK4
T2 construct: amino terminal GST fusion of residues 1-391 of human PLK4; made in house; host or cells: E. coli
T2 sequence (O00444 1-391): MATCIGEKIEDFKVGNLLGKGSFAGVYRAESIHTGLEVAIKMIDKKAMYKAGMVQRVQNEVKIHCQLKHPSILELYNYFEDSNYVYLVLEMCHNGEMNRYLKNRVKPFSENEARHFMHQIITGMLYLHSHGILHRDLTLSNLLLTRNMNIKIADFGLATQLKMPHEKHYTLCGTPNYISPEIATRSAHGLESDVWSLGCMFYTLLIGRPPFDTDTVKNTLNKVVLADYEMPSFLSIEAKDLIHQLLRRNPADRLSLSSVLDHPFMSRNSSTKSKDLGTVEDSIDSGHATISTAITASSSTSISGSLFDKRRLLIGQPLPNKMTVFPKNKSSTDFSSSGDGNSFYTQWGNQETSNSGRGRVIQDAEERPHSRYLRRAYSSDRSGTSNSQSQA
In short: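 Dephosphorylated GST-tagged human PLK4 (residues 1-391, E. coli), 4 nM, preincubated 15 min with compound, then reacted 30 min with 15 μM ATP on MBP-coated plates (50 mM HEPES pH 7.5, 10 mM MgCl2, 0.01% Brij 35). Phospho-MBP detected by antibody ELISA at 450 nm. Tested at 10 μM or 10-point titrations; IC50 from 4-parameter logistic fit.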

Aurora B = biological target: T3, Aurora B (Homo sapiens, UniProt Q96GD4); assay: Aurora B inhibition assay (Z-Lyte); format: biochemical; conditions: 28 nM Aurora B, 128 μM ATP; read-out: IC50 Ranges Aurora B
T3 construct: purchased Invitrogen PV3970
T3 sequence (Q96GD4 whole entry): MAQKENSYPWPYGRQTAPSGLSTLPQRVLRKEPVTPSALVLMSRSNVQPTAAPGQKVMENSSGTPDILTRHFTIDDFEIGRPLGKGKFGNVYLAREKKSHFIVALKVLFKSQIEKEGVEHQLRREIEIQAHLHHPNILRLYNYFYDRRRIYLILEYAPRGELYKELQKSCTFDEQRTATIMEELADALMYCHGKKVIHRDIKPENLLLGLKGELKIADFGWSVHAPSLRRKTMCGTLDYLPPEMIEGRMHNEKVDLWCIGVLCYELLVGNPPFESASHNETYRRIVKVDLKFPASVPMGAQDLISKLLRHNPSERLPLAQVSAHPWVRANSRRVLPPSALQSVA
Procedure: Aurora B inhibition was determined using the Z-Lyte assay kit from Invitrogen. The assay was performed using the recommended manufacturer's instructions with 128 μM ATP and 28 nM Aurora B (Invitrogen cat #PV3970). The % inhibition values were determined according to the manufacturer's directions and IC50 values were obtained using a non-linear 4 point logistic curve fit (XLfit4, IDBS)

[1] = tested on: MDA-MB-231 breast cancer cells; assay: Cell growth inhibition, Sulforhodamine B assay, MDA-MB-231; format: cell-based; conditions: Homo sapiens, 120 h, 5 days culture, SRB assay, read-out: Cell Line GI50 Range MDA-MB-231
[2] = tested on: MDA-MB-468 breast cancer cells; assay: Cell growth inhibition, Sulforhodamine B assay, MDA-MB-468; format: cell-based; conditions: Homo sapiens, 120 h, 5 days culture, SRB assay, read-out: Cell Line GI50 Range MDA-MB-468
[3] = tested on: HCT116 colon cancer cells; assay: Cell growth inhibition, Sulforhodamine B assay, HCT116; format: cell-based; conditions: Homo sapiens, HCT-116, 120 h, 5 days culture, SRB assay, read-out: Cell Line GI50 Range HCT116
Procedure: (§1) Breast cancer cells (MDA-MB-231, MDA-MB-468), colon cancer cells (HCT116, HT29) and ovarian cancer cells (PA-1, OVCAR-3) were seeded (1000 to 4000 in 80 μl per well depending on the cell growth rate) into 96 well plates 24 hours before compound overlay. Compounds were prepared as 10 mM stock solutions in 100% DMSO which were diluted with DMEM (Dulbecco's Modified Eagle's Medium) cell growth Medium (Invitrogen, Burlington, ON, Canada) containing 10% FBS (Fetal Bovine Serum) to concentrations ranging from 50 nM to 250 μM. Aliquots (20 μl) from each concentration were overlaid to 80 μl of the pre-seeded cells in the 96 well plates to make final concentrations of 10 nM to 50 μM. The cells were cultured for 5 days before the Sulforhodamine B assay (SRB) was performed to determine the compound's cell growth inhibition activity.
(§2) Sulforhodamine B (purchased from Sigma, Oakville, ON, Canada) is a water-soluble dye that binds to the basic amino acids of the cellular proteins. Thus, colorimetric measurement of the bound dye provides an estimate of the total protein mass that is related to the cell number. the cells are fixed in situ by gently aspirating off the culture media and adding 50 μl ice cold 10% Trichloroacetic Acid (TCA) per well and incubate at 4° C. for 30-60 min, The plates are washed with water five times and allowed to air dry for 5 min. Addition of 50 μl 0.4% (w/v) SRB solution in 1% (v/v) acetic acid to each well and incubatation for 30 min at RT completes the staining reaction. Following staining, plates are washed four times with 1% acetic acid to remove unbound dye and then allowed to air dry for 5 min. The stain is solubilized with 100 μl of 10 mM Tris pH 10.5 per well. Absorbance is read at 570 nm.
(§3) The percentage (%) of relative growth inhibition was calculated by comparing to DMSO treated only cells (100%). […] The GI50 was calculated using GraphPad PRISM software (GraphPad Software, Inc., San Diego, Calif., USA).

HT29 colon cancer cells = assay: Cell growth inhibition, Sulforhodamine B assay, HT29; format: cell-based; conditions: Homo sapiens, HT-29, 120 h, 5 days culture, SRB assay, read-out: Cell Line GI50 Range HT29
[4] = tested on: PA-1 ovarian cancer cells; assay: Cell growth inhibition, Sulforhodamine B assay, PA-1; format: cell-based; conditions: 120 h, 5 days culture, SRB assay, read-out: Cell Line GI50 Range PA-1
Procedure: as §1, §2, §3

[5] = tested on: OVCAR-3 ovarian cancer cells; assay: Cell growth inhibition, Sulforhodamine B assay, OVCAR-3; format: cell-based; conditions: Homo sapiens, 120 h, 5 days culture, SRB assay, read-out: Cell Line GI50 Range OVCAR-3
[6] = tested on: Colon tumor initiating cells (TICs), 12 colon; assay: Colon tumor-initiating cell growth inhibition (Alamar Blue); format: cell-based; conditions: 216 h, 9 days, read-out: GI50 range 12 colon
[7] = tested on: Ovarian TICs, 2393A ovarian; assay: Ovarian tumor-initiating cell growth inhibition (Alamar Blue); format: cell-based; conditions: 144 h, 6 days, read-out: GI50 range 2393A ovarian

COCCN1CCC(Oc2ccc(-c3n[nH]c4ccc(NC(=O)C(c5ccsc5)N5CCCC5)cc34)cc2)CC1 (centres unmarked) [Example A175, N-(3-(4-((1-(2-methoxyethyl)piperidin-4-yl)oxy)phenyl)-1H-indazol-5-yl)-2-(pyrrolidin-1-yl)-2-(thiophen-3-yl)acetamide]
≤ 5 µM: IC50 (human TTK) | IC50 (human PLK4) | IC50 (Aurora B) | GI50 [1] | GI50 [2] | GI50 [3] | GI50 (HT29 colon cancer cells) | GI50 [4] | GI50 [5] | GI50 [6] | GI50 [7]

O=CN1CCC(Oc2ccc(-c3n[nH]c4ccc(NC(=O)C(c5ccccn5)C5CCCC5)cc34)cc2)CC1 (centres unmarked) [Example A176, 2-cyclopentyl-N-(3-(4-((1-formylpiperidin-4-yl)oxy)phenyl)-1H-indazol-5-yl)-2-(pyridin-2-yl)acetamide]
≤ 5 µM: IC50 (human TTK) | IC50 (human PLK4) | IC50 (Aurora B) | GI50 [1] | GI50 [2] | GI50 [3] | GI50 (HT29 colon cancer cells) | GI50 [4] | GI50 [5] | GI50 [6] | GI50 [7]

CN1CCC(Oc2ccc(-c3n[nH]c4ccc(C(=O)NC(c5ccccc5)C5CCOCC5)cc34)cc2)CC1 (centres unmarked) [Example A177, 3-(4-((1-methylpiperidin-4-yl)oxy)phenyl)-N-(phenyl(tetrahydro-2H-pyran-4-yl)methyl)-1H-indazole-5-carboxamide]
≤ 5 µM: IC50 (human TTK) | IC50 (human PLK4) | IC50 (Aurora B) | GI50 [1] | GI50 [2] | GI50 [3] | GI50 (HT29 colon cancer cells) | GI50 [4] | GI50 [5] | GI50 [6] | GI50 [7]

CN1[C@@H]2CC[C@H]1C[C@@H](Oc1ccc(-c3n[nH]c4ccc(C(=O)NC(c5ccccc5)C5CC5)cc34)cc1)C2 (stereo partly drawn) [Example A178, N-(cyclopropyl(phenyl)methyl)-3-(4-(((1R,3r,5S)-8-methyl-8-azabicyclo[3.2.1]octan-3-yl)oxy)phenyl)-1H-indazole-5-carboxamide]
≤ 5 µM: IC50 (human TTK) | IC50 (human PLK4) | IC50 (Aurora B) | GI50 [1] | GI50 [2] | GI50 [3] | GI50 (HT29 colon cancer cells) | GI50 [4] | GI50 [5] | GI50 [6] | GI50 [7]
